Laboratory results as given in PMC7913927, “Leishmanicidal Activity of Betulin Derivatives in Leishmania amazonensis; Effect on Plasma and Mitochondrial Membrane Potential, and Macrophage Nitric Oxide and Superoxide Production” (Microorganisms, 2021).
Entries after “also recorded” stand apart in the source; their conditions may differ.

What was measured:
[1] = test system: L. (L.) amazonensis LTB0016, VE98MR and VE2000MM promastigotes; test: Mitochondrial membrane potential (ΔΨm), JC-1 fluorescence; format: cell-based, Leishmania amazonensis; details: promastigotes of LTB0016, VE98MR, 48 h, 18: 1 and 2 µM, 22: 2 and 4 µM, vs untreated
Experimental: To evaluate the mitochondrial membrane potential (ΔΨm), the fluorescent compound JC-1 (5,5′,6,6′-tetrachloro-1,1′,3,3′-tetraethylbenzimidazolocarbocyanine iodide) was used, according to a modification of a previously described method. Exponential phase promastigotes were suspended at 26 °C, in RPMIc without phenol red, in a volume of 1 mL, at a cell density of 1 × 10^7 parasites mL^−1. The parasites were left to grow for 48 h, in the presence and absence of the test compounds. Then, after centrifuging (500× g for 10 min) and washing the parasites twice with PBS, they were resuspended in 200 µL of HEPES-G, and placed in 96-well plates. […] Finally, fluorescence was measured in a Victor^2 Wallac spectrofluorometer (Perkin Elmer, Turku, Finland) at the appropriate wavelengths (ex: 485 nm/em: 535 and 580 nm). As the mitochondrial membrane is polarized, JC-1 produces intra-mitochondrial aggregates “J-aggregates” that emit a red fluorescence (λ 590 nm). Mitochondrial membrane depolarization induces JC-1 monomeric conformation in the cytoplasm, then the fluorescence turns green (λ 530 nm). The red/green ratio of fluorescence then is an indirect measurement of the mitochondrial membrane potential. A more depolarized mitochondria means a lower ratio of red/green fluorescence.
Relative fluorescence (RF) was calculated, where RF = 580 nm fluorescence/535 nm fluorescence (red/green). […]

[2] = test system: L. (L.) amazonensis LTB0016, VE98MR and VE2000MM promastigotes; test: Plasma membrane potential (ΔΨp), bisoxonol fluorescence; format: cell-based, Leishmania amazonensis; details: promastigotes of LTB0016, VE98MR, VE2000MM; 15 min; 18: 1 and 2 µM; vs untreated
Experimental: To evaluate the plasma membrane potential (ΔΨp), the fluorescent compound, bisoxonol, bis[1,3-diethylthiobarbituric acid] trimethine oxonol, was used, as well as a method optimized by Padrón-Nieves et al.. Initially, calibration curves for each strain, using increasing concentrations of KCl (0.5 to 75 mM), were performed in the late log growth phase Leishmania promastigotes in the presence of the potassium ionophore valinomycin. By this procedure, fluorescence values could be transformed into millivolts (mV), applying the Nernst equation, ΔΨp = −59.4 log(120/[KCl]). […] After 10 min of incubation in the dark, fluorescence was measured in a Victor^2 Wallac spectrofluorometer (Perkin Elmer, Turku, Finland), using the appropriate wavelengths (ex: 540 nm/em: 580 nm). […] Once the corresponding calibration curve for each strain was obtained, the effect of compounds on the ΔΨp was evaluated. […] After 10 min of incubation in the dark, fluorescence was measured, using the appropriate wavelengths (ex: 540 nm/em: 580 nm). […] To transform the fluorescence values in millivolts (mV), calibration curves were prepared using increasing concentrations of KCl (0.5, 1.15, 2.5, 5, 10, 20, 40, and 75 mM). […]

[3] = test system: L. (L.) braziliensis MHOM/BR/LTB300; parameters: method as in PMID 25240731; details: cited from earlier work
[4] = test system: L. (L.) donovani axenic amastigotes; details: cited from earlier work

Q: What does the source list for C=C(C)C1CCC2(C=NO)CCC3(C)C(CCC4C5(C)CCC(=NO)C(C)(C)C5CCC43C)C12 (stereo not shown) [Compound 18]?
A: Effect on mitochondrial membrane potential (ΔΨm) [1]: significantly depolarized; also recorded: depolarizes ΔΨm in a concentration-dependent way; Effect on plasma membrane potential (ΔΨp) [2]: significantly depolarized; also recorded: significantly depolarize the ΔΨp in all evaluated strains; also recorded: the collapse of the plasma membrane potential (ΔΨp) in a concentration-dependent way; inhibition of parasite migration [3]: inhibited parasite migration at nano and picomolar concentrations; GI50 [4]: 22.8 µM
